PMC5762315, “Inhibition of polo-like kinase 4 (PLK4): a new therapeutic option for rhabdoid tumors and pediatric medulloblastoma” (Oncotarget, 2017)
Where “and” joins values, the source holds several entries; their conditions need not be identical. Equal entries are not always repeated.

Columns and labels:
D283 cells = assay: Colony formation assay, D283; type: cell-based, human; conditions: 50nM
Experimental: For proliferation assay DAOY was plated with 5 x 10^4 cells per well and D283 was plated with 5 x 10^5 cells per well.

[1] = tested on: MON, G401, BT-12, BT-16, DAOY and D283 cell lines; assay: Senescence beta-galactosidase assay; type: cell-based, human; conditions: all cell lines (MON, G401, BT-12, BT-16, DAOY, D283); 100nM, 48 hours
Experimental: For each cell line, cells were seeded in 6-well plates in triplicates with 100,000 cells per well. Treatment medium was added the next day and incubated for 48 or 72 hrs. After incubation, cells were washed twice with 1X PBS and 1mL of the Fixation Buffer from the kit was added to each well of the plate and incubated at RT for 5 min. Cells were washed with 1X PBS and 1mL of staining solution from the kit was added to each well and incubated at 37°C without CO2 overnight. The next day, the cells were washed with 1X PBS and the numbers of blue stained cells (which indicate senescent cells) and unstained cells were counted in image J (www.imagej.nih.gov). The percentage of senescent cells was calculated.

[2] = tested on: PLK4 mRNA expression in MON rhabdoid cells; assay: qRT-PCR for PLK4 transcript in treated MON cells; type: cell-based, human; conditions: 10, 50, 100 and 500nM for 24, 48 and 72 hours
Experimental: The expression of PLK4 (Hs00179514_m1) in each cell line was verified by TaqMan GE assays (Thermo Fisher Scientific, USA) using the housekeeping gene GAPDH (Hs02758991_g1) as reference. Total RNA (2μg) was used to make cDNA using the Applied Biosystems High Capacity RNA-to-cDNA kit (Thermo Fisher Scientific). Reactions were performed in triplicate with adequate positive and negative controls. The normalized expression levels were calculated by the ΔΔCt method using the housekeeping gene and a pool of all samples as calibrator.

[3] = tested on: MON, G401, BT-12 and BT-16 rhabdoid cell lines; assay: Flow cytometry apoptosis (Annexin V / PI); type: cell-based, human; conditions: G401, BT-12, BT-16, 100nM for 48 hours
Experimental: Live cells were stained with Annexin V as an indicator of early apoptosis and Propidium Iodide (PI - Thermo Fisher Scientific, USA) for detection of late apoptosis and necrosis, according to manufacturer’s instructions (Thermo Fisher Scientific, USA). Flow cytometric analysis was performed on a BD Fortessa instrument (BD Biosciences, USA) within an hour of staining. Data was analyzed using Modfit LT from Verity Software House. All experiments were performed in triplicates.

MUSK = MUSK (Homo sapiens, UniProt O15146); assay: Kinase activity screening (SelectScreen), MUSK; type: biochemical; conditions: 10-point titration
MON cells = assay: Viability assay (Presto Blue), MON; type: cell-based; conditions: Homo sapiens, dose-response 1nM to 10μM
Experimental: Except DAOY and D283, all cell lines were plated with 2 x 10^3 cells per well 96-well and the absorbance was measured after 48 and 72 hours at drug concentrations of 5, 10, 50, 100, 200, 500nM, 1μM and 5μM.

various kinases [4] = molecular target: various kinases (Homo sapiens, UniProt Q14012); assay: Adapta Universal Kinase Assay, panel of 486 biochemical kinase assays; set-up: % Inhibition Average: concentration or dose not given beside the values; conditions: CAMK1 (CaMK1)
various kinases [5] = molecular target: various kinases (Homo sapiens, UniProt O00329); assay: as above; set-up: % Inhibition Average: concentration or dose not given beside the values; conditions: PIK3CD/PIK3R1 (p110 delta/p85 alpha)
various kinases [6] = molecular target: various kinases (Homo sapiens, UniProt Q8TF76); assay: as above; set-up: % Inhibition Average: concentration or dose not given beside the values; conditions: GSG2 (Haspin)
various kinases [7] = molecular target: various kinases (Homo sapiens, UniProt P51617); assay: as above; set-up: % Inhibition Average: concentration or dose not given beside the values; conditions: IRAK1
various kinases [8] = molecular target: various kinases (Homo sapiens, UniProt Q9NYA1); assay: as above; set-up: % Inhibition Average: concentration or dose not given beside the values; conditions: kinase SPHK1; Adapta
various kinases [9] = molecular target: various kinases (Homo sapiens, UniProt O60331); assay: as above; set-up: % Inhibition Average: concentration or dose not given beside the values; conditions: kinase PIP5K1C; Adapta
various kinases [10] = molecular target: various kinases (Homo sapiens, UniProt Q9UBF8); assay: as above; set-up: % Inhibition Average: concentration or dose not given beside the values; conditions: PI4KB (PI4K beta)
various kinases [11] = molecular target: various kinases (Homo sapiens, UniProt Q5S007); assay: as above; set-up: % Inhibition Average: concentration or dose not given beside the values
various kinases [12] = molecular target: various kinases (Homo sapiens, UniProt Q5S007, G2019S); assay: as above; set-up: % Inhibition Average: concentration or dose not given beside the values
various kinases [13] = molecular target: various kinases (Homo sapiens, UniProt P11802); assay: as above; set-up: % Inhibition Average: concentration or dose not given beside the values
various kinases [14] = molecular target: various kinases (Homo sapiens, UniProt O60285); assay: as above; set-up: % Inhibition Average: concentration or dose not given beside the values; conditions: NUAK1 (ARK5)
various kinases [15] = molecular target: various kinases (Homo sapiens, UniProt P50613); assay: as above; set-up: % Inhibition Average: concentration or dose not given beside the values; conditions: CDK7/cyclin H/MNAT1
various kinases [16] = molecular target: various kinases (Homo sapiens, UniProt O15111); assay: as above; set-up: % Inhibition Average: concentration or dose not given beside the values; conditions: CHUK (IKK alpha)
various kinases [17] = molecular target: various kinases (Homo sapiens, UniProt Q8NEB9); assay: as above; set-up: % Inhibition Average: concentration or dose not given beside the values; conditions: PIK3C3 (hVPS34)
various kinases [18] = molecular target: various kinases (Homo sapiens, UniProt O75747); assay: as above; set-up: % Inhibition Average: concentration or dose not given beside the values; conditions: PIK3C2G (PI3K-C2 gamma)
RT and MB cell lines = assay: Clonogenic recovery assay; type: cell-based, human; conditions: 6 days 100nM, then 12 days 0.1% DMSO
Experimental: For each cell line, 200 cells were seeded into 6-well tissue culture plates. […] On the 7th day, cell were washed with 1X PBS twice and then incubated with 0.1% DMSO for an additional 12 days. […] The number of colonies was counted. All experiments were performed in triplicates.

Sequence of various kinases (Homo sapiens, UniProt Q5S007) (Q5S007 whole entry): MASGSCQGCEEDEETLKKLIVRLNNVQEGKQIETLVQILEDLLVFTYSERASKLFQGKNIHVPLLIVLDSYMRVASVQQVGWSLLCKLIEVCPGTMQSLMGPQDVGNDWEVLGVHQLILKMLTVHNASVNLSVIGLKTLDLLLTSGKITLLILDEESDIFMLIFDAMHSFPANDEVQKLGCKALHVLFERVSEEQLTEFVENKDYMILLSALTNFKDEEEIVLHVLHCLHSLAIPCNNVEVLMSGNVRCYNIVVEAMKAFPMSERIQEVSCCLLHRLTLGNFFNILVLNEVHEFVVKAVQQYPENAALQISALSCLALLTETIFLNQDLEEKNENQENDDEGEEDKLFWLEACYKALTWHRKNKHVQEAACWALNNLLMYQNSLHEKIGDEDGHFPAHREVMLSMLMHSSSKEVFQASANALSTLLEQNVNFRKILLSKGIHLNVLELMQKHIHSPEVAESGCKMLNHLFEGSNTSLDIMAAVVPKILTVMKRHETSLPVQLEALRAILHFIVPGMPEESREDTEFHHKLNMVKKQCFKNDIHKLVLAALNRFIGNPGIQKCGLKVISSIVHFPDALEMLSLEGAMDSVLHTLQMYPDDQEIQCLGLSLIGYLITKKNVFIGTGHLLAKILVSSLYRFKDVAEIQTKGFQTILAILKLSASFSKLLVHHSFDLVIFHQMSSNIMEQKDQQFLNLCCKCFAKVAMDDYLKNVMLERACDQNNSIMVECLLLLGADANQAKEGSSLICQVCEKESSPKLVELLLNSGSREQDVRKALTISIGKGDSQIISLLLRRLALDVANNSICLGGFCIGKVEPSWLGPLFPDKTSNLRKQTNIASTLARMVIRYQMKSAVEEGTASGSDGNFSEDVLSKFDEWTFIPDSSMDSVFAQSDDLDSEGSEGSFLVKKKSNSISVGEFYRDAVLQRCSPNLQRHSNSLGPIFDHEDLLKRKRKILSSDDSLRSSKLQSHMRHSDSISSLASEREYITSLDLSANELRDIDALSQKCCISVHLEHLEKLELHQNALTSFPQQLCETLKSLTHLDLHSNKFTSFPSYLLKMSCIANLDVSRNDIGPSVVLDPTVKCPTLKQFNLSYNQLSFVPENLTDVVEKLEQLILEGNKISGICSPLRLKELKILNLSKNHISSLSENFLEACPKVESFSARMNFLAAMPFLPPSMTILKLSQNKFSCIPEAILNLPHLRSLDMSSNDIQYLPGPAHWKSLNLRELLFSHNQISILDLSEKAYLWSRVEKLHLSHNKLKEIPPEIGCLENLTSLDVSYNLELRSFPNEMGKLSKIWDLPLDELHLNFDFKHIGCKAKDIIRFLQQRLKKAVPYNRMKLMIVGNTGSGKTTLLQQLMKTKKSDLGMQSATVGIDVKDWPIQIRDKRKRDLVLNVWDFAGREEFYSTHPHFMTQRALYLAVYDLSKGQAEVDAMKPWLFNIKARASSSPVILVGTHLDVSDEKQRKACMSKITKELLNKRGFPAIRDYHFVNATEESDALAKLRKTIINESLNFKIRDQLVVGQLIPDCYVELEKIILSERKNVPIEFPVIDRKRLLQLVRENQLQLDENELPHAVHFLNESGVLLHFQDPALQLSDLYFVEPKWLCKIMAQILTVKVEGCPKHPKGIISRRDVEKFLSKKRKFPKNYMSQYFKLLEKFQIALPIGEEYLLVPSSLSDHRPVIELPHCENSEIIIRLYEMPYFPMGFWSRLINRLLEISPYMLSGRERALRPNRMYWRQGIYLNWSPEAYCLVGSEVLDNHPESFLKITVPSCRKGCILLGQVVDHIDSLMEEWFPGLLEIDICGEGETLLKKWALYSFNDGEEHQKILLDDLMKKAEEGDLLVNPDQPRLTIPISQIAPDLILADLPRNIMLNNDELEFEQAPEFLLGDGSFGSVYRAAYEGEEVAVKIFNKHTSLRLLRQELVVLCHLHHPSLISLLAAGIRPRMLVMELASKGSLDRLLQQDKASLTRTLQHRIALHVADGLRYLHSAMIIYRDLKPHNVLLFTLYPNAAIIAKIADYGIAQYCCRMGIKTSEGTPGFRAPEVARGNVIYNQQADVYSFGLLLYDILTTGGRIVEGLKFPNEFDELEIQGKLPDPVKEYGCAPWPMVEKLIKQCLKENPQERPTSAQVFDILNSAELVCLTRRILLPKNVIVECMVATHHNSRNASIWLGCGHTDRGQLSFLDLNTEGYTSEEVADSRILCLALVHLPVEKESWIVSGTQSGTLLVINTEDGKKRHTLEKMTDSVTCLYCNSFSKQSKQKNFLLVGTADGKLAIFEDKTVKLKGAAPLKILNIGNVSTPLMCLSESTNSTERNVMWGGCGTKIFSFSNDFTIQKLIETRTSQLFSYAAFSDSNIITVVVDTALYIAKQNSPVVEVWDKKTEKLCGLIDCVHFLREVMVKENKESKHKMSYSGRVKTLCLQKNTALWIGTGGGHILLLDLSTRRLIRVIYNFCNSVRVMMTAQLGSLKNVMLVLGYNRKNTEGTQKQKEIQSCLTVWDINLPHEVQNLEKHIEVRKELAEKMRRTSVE
Sequence of various kinases (Homo sapiens, UniProt Q9NYA1) (Q9NYA1 whole entry): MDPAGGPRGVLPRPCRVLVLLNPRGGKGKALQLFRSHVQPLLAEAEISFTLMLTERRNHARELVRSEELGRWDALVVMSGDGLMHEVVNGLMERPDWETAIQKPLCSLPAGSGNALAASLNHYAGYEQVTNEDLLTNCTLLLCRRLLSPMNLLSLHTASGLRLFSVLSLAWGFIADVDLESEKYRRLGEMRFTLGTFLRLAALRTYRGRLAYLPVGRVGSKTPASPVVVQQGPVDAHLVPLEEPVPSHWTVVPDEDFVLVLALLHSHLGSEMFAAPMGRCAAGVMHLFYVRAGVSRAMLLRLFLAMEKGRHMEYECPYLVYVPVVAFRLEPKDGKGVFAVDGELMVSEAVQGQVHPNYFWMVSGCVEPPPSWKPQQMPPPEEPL
Sequence of various kinases (Homo sapiens, UniProt P11802) (P11802 whole entry): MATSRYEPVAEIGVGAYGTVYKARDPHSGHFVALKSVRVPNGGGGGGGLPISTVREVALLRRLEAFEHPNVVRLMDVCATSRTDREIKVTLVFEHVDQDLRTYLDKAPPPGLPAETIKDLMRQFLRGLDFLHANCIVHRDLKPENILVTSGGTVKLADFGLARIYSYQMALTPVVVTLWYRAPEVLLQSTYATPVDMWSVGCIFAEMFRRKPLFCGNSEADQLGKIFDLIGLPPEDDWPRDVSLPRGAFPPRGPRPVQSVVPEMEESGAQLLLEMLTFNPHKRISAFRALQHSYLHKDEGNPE
Sequence of various kinases (Homo sapiens, UniProt O60285) (O60285 whole entry): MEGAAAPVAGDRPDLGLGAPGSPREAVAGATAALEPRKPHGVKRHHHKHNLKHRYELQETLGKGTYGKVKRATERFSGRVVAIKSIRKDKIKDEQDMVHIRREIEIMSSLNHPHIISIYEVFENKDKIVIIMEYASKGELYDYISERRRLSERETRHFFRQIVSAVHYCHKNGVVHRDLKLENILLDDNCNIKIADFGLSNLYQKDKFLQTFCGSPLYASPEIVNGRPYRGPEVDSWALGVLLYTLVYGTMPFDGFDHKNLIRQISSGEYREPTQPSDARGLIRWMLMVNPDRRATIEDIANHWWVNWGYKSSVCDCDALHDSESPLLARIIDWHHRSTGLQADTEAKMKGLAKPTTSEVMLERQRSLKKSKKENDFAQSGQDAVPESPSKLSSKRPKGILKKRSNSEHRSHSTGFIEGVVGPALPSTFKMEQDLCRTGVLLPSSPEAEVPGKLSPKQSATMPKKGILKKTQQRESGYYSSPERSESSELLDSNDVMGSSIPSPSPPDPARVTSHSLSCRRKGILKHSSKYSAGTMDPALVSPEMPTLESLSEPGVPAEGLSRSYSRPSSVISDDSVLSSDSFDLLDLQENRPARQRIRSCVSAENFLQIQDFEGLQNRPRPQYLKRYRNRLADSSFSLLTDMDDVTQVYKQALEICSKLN
Sequence of various kinases (Homo sapiens, UniProt Q5S007, G2019S) (Q5S007 whole entry G2019S): as the sequence (Q5S007 whole entry) above, with G2019S counted along it
Sequence of various kinases (Homo sapiens, UniProt O60331) (O60331 whole entry): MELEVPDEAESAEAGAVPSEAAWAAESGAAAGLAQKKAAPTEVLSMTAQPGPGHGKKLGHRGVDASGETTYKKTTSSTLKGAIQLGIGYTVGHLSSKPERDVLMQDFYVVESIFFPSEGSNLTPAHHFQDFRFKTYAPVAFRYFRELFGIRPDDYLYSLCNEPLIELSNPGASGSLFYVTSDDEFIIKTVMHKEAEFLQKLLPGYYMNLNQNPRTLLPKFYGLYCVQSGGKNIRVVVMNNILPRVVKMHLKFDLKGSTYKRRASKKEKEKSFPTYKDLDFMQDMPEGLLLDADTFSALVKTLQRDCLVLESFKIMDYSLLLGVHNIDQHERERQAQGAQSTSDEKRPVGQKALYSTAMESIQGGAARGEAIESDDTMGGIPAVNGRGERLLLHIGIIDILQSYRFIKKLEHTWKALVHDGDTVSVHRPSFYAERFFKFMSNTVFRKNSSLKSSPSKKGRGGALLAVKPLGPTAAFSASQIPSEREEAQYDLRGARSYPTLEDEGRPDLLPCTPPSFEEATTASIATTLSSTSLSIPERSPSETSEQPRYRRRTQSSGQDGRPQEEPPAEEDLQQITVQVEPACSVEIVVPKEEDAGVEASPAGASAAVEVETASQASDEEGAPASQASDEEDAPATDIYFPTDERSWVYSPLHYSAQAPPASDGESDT
Sequence of various kinases (Homo sapiens, UniProt Q14012) (Q14012 whole entry): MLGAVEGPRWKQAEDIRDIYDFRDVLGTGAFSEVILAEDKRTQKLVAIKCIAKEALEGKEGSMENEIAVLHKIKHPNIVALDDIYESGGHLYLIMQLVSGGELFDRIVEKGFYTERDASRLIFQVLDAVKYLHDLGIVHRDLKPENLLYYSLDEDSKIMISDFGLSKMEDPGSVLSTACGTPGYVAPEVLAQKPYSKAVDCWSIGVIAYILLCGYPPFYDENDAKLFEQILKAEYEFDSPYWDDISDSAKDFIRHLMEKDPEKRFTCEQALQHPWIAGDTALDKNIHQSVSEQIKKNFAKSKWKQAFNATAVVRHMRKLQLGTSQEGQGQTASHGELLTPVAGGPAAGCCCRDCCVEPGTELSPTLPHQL

With `COc1ccc2c(c1)[C@]1(C[C@H]1c1ccc3c(/C=C/c4ccc(CN5C[C@@H](C)O[C@@H](C)C5)cc4)n[nH]c3c1)C(=O)N2` [CFI-400945] the colony formation (D283 cells) was “Complete inhibition”, the “senescent cells (beta galactosidase)” value [1] was “significant increase” and the “PLK4 expression (qPCR) vs control” value [2] was “time dependent decrease”. For the same compound, the “cell death (apoptosis, flow cytometry) vs control” value [3] was “significantly higher percentage of cells undergoing cell death”, the IC50 (MUSK) was 48.7 nM and the IC50 (MON cells) was 5130 nM. For the same compound, the “% Inhibition” value (various kinases [4]) was 21% and 24%, the “% Inhibition” value (various kinases [5]) was -2% and -8% and the “% Inhibition” value (various kinases [6]) was -7% and 3%. For the same compound, the “% Inhibition” value (various kinases [7]) was -8% and -12%, the “% Inhibition Average” value (various kinases [8]) was -12% and the “% Inhibition Duplicate #1” value (various kinases [8]) was -11%. The “% Inhibition Duplicate #2” value (various kinases [8]) was -14%, the “% Inhibition Average” value (various kinases [9]) was 8% and the “% Inhibition Duplicate #1” value (various kinases [9]) was 8%. For the same compound, the “% Inhibition Duplicate #2” value (various kinases [9]) was 8%, the “% Inhibition” value (various kinases [10]) was 3% and 11% and the “% Inhibition” value (various kinases [11]; LRRK2) was 34% and 26%. The “% Inhibition” value (various kinases [11]; LRRK2 FL) was 43% and 42%, the “% Inhibition” value (various kinases [12]; LRRK2 G2019S) was 54% and 55% and the “% Inhibition” value (various kinases [12]; LRRK2 G2019S FL) was 54% and 50%. The “% Inhibition” value (various kinases [13]; CDK4/cyclin D1) was 10% and 9%, the “% Inhibition” value (various kinases [13]; CDK4/cyclin D3) was 5% and 8% and the “% Inhibition” value (various kinases [14]) was 66% and 65%. For the same compound, the IC50 (various kinases [14]) was 272 nM, the “% Inhibition” value (various kinases [15]) was -11% and -6% and the “% Inhibition” value (various kinases [16]) was -11%. The “% Inhibition” value (various kinases [17]) was 8% and 15%, the “% Inhibition” value (various kinases [18]) was -1% and -6% and the clonogenic recovery (RT and MB cell lines) was “none of the cell lines recovered their ability to generate colonies”.
